Test results from patent US9040457B2, “Phenylamidines having a high fungicidal activity and use thereof” (ISAGRO S.P.A., priority 2010, dated 2015).

Experiments:
Assay type in all cases: in vivo
[1] = system: Erysiphe graminis; assay: Fungicidal activity in preventive application (5 days) against Erysiphe graminis on wheat; settings: scale 100 = healthy plant, 0 = completely infected plant; for Activity P5, NT: parts developed during the test (NT); for Activity P5, T: parts treated directly (T)
Description: Determination of the Fungicidal Activity in Preventive Application (5 Days) Against Erysiphe graminis on Wheat
(§1) Leaves of wheat plants of the Salgemma variety, grown in pots in a conditioned environment kept at 20° C. and 70% of relative humidity (R.H.), were treated by spraying on both sides of the leaves with the compounds under examination, dispersed in hydroacetonic solutions at 20% by volume of acetone.
After remaining 5 days in a conditioned environment, the plants were infected under dry conditions by shaking over them, in order to distribute the inoculum, plants previously infected by Erysiphe graminis.
The plants were then maintained in the same cell, in a humidity-saturated environment and at a temperature ranging from 18 to 24° C. for 12 days.
(§2) At the end of this period, the external symptoms of the pathogen appeared and it was therefore possible to proceed with the evaluation of the intensity of the infection, on both the parts treated directly with the products (T), and also on the parts which had developed during the test (NT), by means of a visible percentage evaluation scale of the area of affected leafs; the scale comprises, as extremes, the value 100 (healthy plant) and the value 0 (completely infected plant).

[2] = system: wheat plants; assay: Phytotoxicity (percentage of leaf necrosis) on wheat plants, Erysiphe graminis test; settings: 0 = completely healthy plant, 100 = completely necrotized plant
Description: as §1
(§3) At the same time, the phytotoxicity was evaluated (percentage of leaf necrosis) induced on the wheat plants by the application of the products: in this case, the evaluation scale varies from 0 (completely healthy plant) to 100 (completely necrotized plant).

[3] = system: Puccinia recondita; assay: Fungicidal activity in preventive application (5 days) against Puccinia recondita on wheat; settings: scale 100 = healthy plant, 0 = completely infected plant; for Activity P5, NT: parts developed during the test (NT); for Activity P5, T: parts treated directly (T)
Description: Determination of the Fungicidal Activity in Preventive Application (5 Days) Against Puccinia recondita on Wheat
as §1
After remaining 5 days in a conditioned environment, the plants were sprayed on both sides of the leafs with an aqueous suspension of conidia of Puccinia recondita (2 mg of inoculum per 1 ml of solution for infection).
After being sprayed, the plants were kept in a humidity-saturated environment at a temperature ranging from 18 to 24° C. for the incubation period of the fungus (1 day).
After this period, the plants were put in a greenhouse with R.H. of 70% and at a temperature of 18-24° C. for 14 days.
as §2

[4] = system: wheat plants; assay: Phytotoxicity (percentage of leaf necrosis) on wheat plants, Puccinia recondita test; settings: 0 = completely healthy plant, 100 = completely necrotized plant
Description: as §1, §3

[5] = system: cereals, cucumbers, tomatoes and other important crops; assay: Phytotoxicity of WO 00/46184 compounds on crops (background statement); settings: at the doses which allow a good fungicidal activity
[6] = system: phytopathogenic fungi; assay: Fungicidal activity of WO 00/46184 compound (background statement); settings: only exerted satisfactorily in excessively high dosages

SMILES	Activity P5, NT ([1]; 30 ppm) [%]	Activity P5, T ([1]; 30 ppm) [%]	Activity P5, NT ([1]; 125 ppm) [%]	Activity P5, T ([1]; 125 ppm) [%]	Phytotoxicity % N.F. ([2]; 30 ppm) [%]	Phytotoxicity % N.F. ([2]; 125 ppm) [%]	Activity P5, NT ([3]; 30 ppm) [%]	Activity P5, T ([3]; 30 ppm) [%]	Activity P5, NT ([3]; 125 ppm) [%]	Activity P5, T ([3]; 125 ppm) [%]	Phytotoxicity % N.F. ([4]; 30 ppm) [%]	Phytotoxicity % N.F. ([4]; 125 ppm) [%]	leaf necrosis on crops [5]	fungicidal activity [6]
Cc1cc(Oc2cccc(OCC(F)(F)F)c2)c(C)cc1N=CN(C)C [CR-5, N,N-dimethyl-N′-{4-[3-(2,2,2-trifluoroethoxy)phenoxy]-2,5-xylyl}formamidine]	65	70	80	90	20	30	60	65	80	85	15	25	marked leaf necrosis	
CCN(C)C=Nc1cc(C)c(Sc2cccc(OCC(F)(F)C(F)(F)F)c2)cc1C [Compound 23]	100	100	100	100	0	0	100	100	100	100	0	0		
CCN(C)C=Nc1cc(C)c(Sc2cccc(OCC(F)(F)C(F)F)c2)cc1C [Compound 19]	100	100	100	100	0	0	100	100	100	100	0	0		
CCN(C)C=Nc1cc(C)c(Sc2cccc(OC(F)(F)C(F)F)c2)cc1C [Compound 2, N-ethyl-N-methyl-N′-{4-[3-(1,1,2,2-tetrafluoroethoxy)phenylthio]-2,5-xylyl}formamidine]	100	100	100	100	0	0	100	100	100	100	0	0		
Cc1cc(Oc2cccc(OC(F)(F)F)c2)c(C)cc1N=CN(C)C [CR-4, N,N-dimethyl-N′-[4-(3-trifluoromethoxyphenoxy)-2,5-xylyl]formamidine]	70	75	90	95	15	30	65	70	85	90	20	30	marked leaf necrosis	
CCN(C)C=Nc1cc(C)c(Sc2cccc(OCC(F)(F)F)c2)cc1C [Compound 15]	100	100	100	100	0	0	100	100	100	100	0	0		
CCN(C)C=Nc1cc(C)c(Oc2cccc(C(F)(F)F)c2)cc1C [CR-3, N-ethyl-N-methyl-N′-[4-(3-trifluoromethylphenoxy)-2,5-xylyl]formamidine]	85	95	96	100	20	35	85	95	100	100	21	33	marked leaf necrosis	
Cc1cc(Sc2cccc(C(F)(F)F)c2)c(C)cc1N=CN(C)C [CR-2, N,N-dimethyl-N′-[4-(3-trifluoromethylphenylthio)-2,5-xylyl]-formamidine]	65	78	80	95	0	0	60	68	90	95	0	0		insufficient
CCN(C)C=Nc1cc(C)c(Sc2cccc(OC(F)F)c2)cc1C [Compound 1, N-ethyl-N-methyl-N′-[4-(3-difluoromethoxyphenylthio)-2,5-xylyl]formamidine]	100	100	100	100	0	0	100	100	100	100	0	0		
Cc1cc(Oc2cccc(C(F)(F)F)c2)c(C)cc1N=CN(C)C [CR-1, N,N-dimethyl-N′-[4-(3-trifluoromethylphenoxy)-2,5-xylyl]-formamidine]	76	90	90	100	15	25	70	80	90	100	14	26	marked leaf necrosis	
